In brackets after ≈: the same amount, converted by molar mass. Read-outs that look alike come from different tables or passages of the source.
Key:
bacterial DHFR (bDHFR) = target: T1, bacterial DHFR (bDHFR) (Escherichia coli, UniProt P0ABQ4); test: DHFR enzyme assay, Ki determination, bacterial DHFR; format: biochemical, E. coli
T1 construct: gift of Eric Brown, McMaster University
Description: Human and Bacterial DHFR: E. coli DHFR was kindly provided by Eric Brown of MacMaster University.
(§1) Dihydrofolic acid and NADPH were purchased from Sigma. Enzyme assays were adapted for microtitre format from a previously published procedure (2, 3). All assays were performed in a 250 μl volume in 96-well microtitre plates. Typical assays consisted of 20 nM DHFR (human or E. coli), 100 μM NADPH, and 50 μM dihydrofolic acid in 100 mM HEPES pH 8, 10 mM KCl, and 10 mM MgCl2. The assay was monitored spectrophotometrically for the conversion of NADPH to NADP+, which results in a decrease in absorbance at 340 nm.
The reaction was initiated by the addition of 125 μl of 100 μM dihydrofolic acid. The final concentrations in the assay were 20 nM DHFR, 100 μM NADPH, 50 μM dihydrofolic acid, and a range of 500 μM to 20 nM inhibitor compound. The final DMSO concentration was 2% of the total volume. Reactions were monitored as described above.

S. aureus [1] = test: S. aureus mouse septicaemia model; format: in vivo; conditions: administered orally; mouse protection model
Description: Systemic models of infection are described in the literature. The following conditions can be used to assay the compounds in this application. Bacteria are grown in Mueller-Hinton agar at 37° C. during 24 h. For each experiment, a bacterial suspension is prepared by inoculating 4-5 bacterial colonies onto Mueller-Hinton broth (MHB) and by incubating at 37° C. for 24 hours to yield approximately 10^9 CFU/ml. BalbC female mice are supplied by Charles River (Deutschland). Animals are infected by a single administration of an LD100 dose of bacterial culture suspension (1×10^8 CFU/100 μl per animal) in the tail vein. A careful clinical examination is made several times a day, and obvious clinical symptoms and mortality are recorded. Animals survival is observed for a period of 6 days. Azithromycin is dissolved in 0.5% methocel in saline solution and administered orally. Test compounds are micronized with mortar and pestle and then dissolved in methocel saline solution with 3% of DMF. The first dose is administered 30 minutes after infection, with following doses every 12 hours for 3 days.
In vivo Efficacy Testing—S. aureus Mouse Septicaemia Model.
Several compounds were tested in a S. aureus mouse protection models for efficacy. Two compounds, 25 and 62, protected 40% of treated animals from the lethal infection when administered orally.

S. aureus [2] = test: Microdilution antimicrobial susceptibility test (MIC); format: cell-based; conditions: Staphylococcus aureus
Description: (§2) Stock solutions of tested compounds were prepared in N,N-dimethylformamide (DMF) at a concentration of 5 mg/mL. Working solutions of the tested compounds were then prepared from the stock solutions, in Mueller-Hinton broth (MHB) with a starting concentration of 64 μg/mL.
(§3) Bacterial inocula were prepared from overnight culture (i.e., one fresh colony from agar plate in 5 ml MHB; H. influenzae was grown in MHB with the addition of yeast extract, haematin, and NAD), centrifuged 2×5 min/3000 rpm (for S. pneumoniae and H. influenzae, 2×10 min/3000 rpm), and dispensed in 5 ml of fresh MHB each time, such that the bacterial suspension is diluted to obtain 100 colony forming units (cfu) in a microplate well (100 μl total volume).
(§4) Microplate wells were filled with two-fold dilutions of test compound (50 μl), starting with 64 μg/ml. Wells were then filled with 50 μl of bacterial inoculum (final volume: 100 μl/well). The plates were incubated at 37° C. for 18-24 hours (S. pneumoniae was grown in a CO2-enriched atmosphere).

human DHFR (hDHFR) = target: T2, human DHFR (hDHFR) (Homo sapiens, UniProt P00374); test: DHFR enzyme assay, Ki determination, human DHFR; format: biochemical; conditions: Table 3
T2 construct: result in the amplification of a 186 amino acid hDHFR coding region; made in house; host or cells: E. coli Top10
T2 sequence (P00374 1-187): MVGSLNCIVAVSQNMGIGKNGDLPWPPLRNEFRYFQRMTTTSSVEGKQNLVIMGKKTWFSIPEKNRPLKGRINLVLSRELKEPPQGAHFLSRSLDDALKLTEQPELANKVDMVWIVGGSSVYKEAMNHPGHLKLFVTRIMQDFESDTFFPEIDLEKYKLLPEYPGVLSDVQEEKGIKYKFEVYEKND
Description: The human DHFR cDNA was cloned by PCR from the Human Universal Quick-clone™ cDNA purchased from Clontech.
The PCR fragment was digested with restriction enzymes NdeI and HindIII, and then ligated into a derivative of the pKK223-3 expression vector (Amersham Pharmacia). The final expression vector (pFW96.2) was transformed into E. coli Top10 F40 and hDHFR protein was induced by the addition of 1 mM IPTG followed by incubation at 37° C. for 4 hrs. Recombinant human DHFR was purified based on a previously published procedure (2).
as §1
Five microliters of inhibitor compound in DMSO was added to 120 μl of enzyme solution (40 nM DHFR and 200 μM NADPH). The reaction was initiated by the addition of 125 μl of 100 μM dihydrofolic acid. The final concentrations in the assay were 20 nM DHFR, 100 μM NADPH, 50 μM dihydrofolic acid, and a range of 500 μM to 20 nM inhibitor compound. The final DMSO concentration was 2% of the total volume. Reactions were monitored as described above.
V=(Vmax[S])/(Km(1+I/Ki)+[S]), where S=dihydrofolate, Km=Michaelis constant for dihydrofolate, I=inhibitor concentration.

E. coli = test: Microdilution antimicrobial susceptibility test (MIC); format: cell-based; conditions: Escherichia coli; Table 2; 90% inhibition of growth
Description: as §2, §3, §4

E. faecalis = test: as above; format: cell-based; conditions: Enterococcus faecalis; Table 2; 90% inhibition of growth
Description: as §2, §3, §4

H. influenzae = test: as above; format: cell-based; conditions: Haemophilus influenzae; Table 2; 90% inhibition of growth; read-out: MIC H. influenzae
Description: as §2, §3, §4

M. catarrhalis = test: as above; format: cell-based; conditions: Moraxella catarrhalis; Table 2; 90% inhibition of growth
Description: as §2, §3, §4

P. aeruginosa = test: as above; format: cell-based; conditions: Pseudomonas aeruginosa; Table 2; 90% inhibition of growth
Description: as §2, §3, §4

S. pneumoniae = test: as above; format: cell-based; conditions: Streptococcus pneumoniae; Table 2; 90% inhibition of growth
Description: as §2, §3, §4

S. cerevisiae = test: Microdilution susceptibility test (MIC), yeast as indicator of cytotoxicity; format: cell-based; conditions: Saccharomyces cerevisiae; Table 2; 90% inhibition of growth
Description: The following table of compounds of one aspect of the invention have potent antimicrobial activity against S. aureus bacteria and are anticipated to have physical-chemical properties similar to those of orally absorbed and bioavailable drugs and drug-like compounds. Antibacterial activity for a variety of bacterial species are shown (S. aureus, S. pneumoniae, E. faecalis, M. catarrhalis, and H. influenzae). The yeast cell (S. cerevisiae) in this panel of organisms is an indicator of potential cytotoxicity in mammalian cells.
as §2, §4

[3] = second part of table, read-out: bDHFR
[4] = Table 2, 90% inhibition of growth, read-out: MIC S. aureus

SMILES | Ki (bacterial DHFR (bDHFR); [3]) | treated animals protected from the lethal infection (S. aureus [1]) | Ki (bacterial DHFR (bDHFR); average, read-out: bDHFR Ki/(μM) avg) | MIC (S. aureus [2]; MIC, average, read-out: S. aureus (μg/ml) avg) | Ki (bacterial DHFR (bDHFR); Table 3, read-out: bDHFR Ki) | Ki (human DHFR (hDHFR)) | MIC (E. coli) | MIC (E. faecalis) | MIC (H. influenzae) | MIC (M. catarrhalis) | MIC (P. aeruginosa) | MIC (S. aureus [2]; [4]) | MIC (S. pneumoniae) | MIC (S. cerevisiae)
Cc1ccc(C(C)N(C)c2ncc3c(N)nc(N)nc3n2)c2ccccc12 (stereo not shown) [Compound 62] | 0.802 µM | 40% | – | – | – | – | – | – | – | – | – | – | – | –
CC(c1csc2ccccc12)N(C)c1ncc2c(N)nc(N)nc2n1 (stereo not shown) [Compound 25] | < 0.004 µM | 40% | 0.004 µM | 0.25 µg/mL (≈ 0.711 µM) | – | – | – | – | – | – | – | – | – | –
CN(Cc1cnc2nc(N)nc(N)c2n1)c1ccc(C(=O)NCc2cccnc2)cc1 [Compound 4] | – | – | – | – | < 0.1 µM | 0.5 to 0.999 µM | > 64 mg/L | 2 to 8 mg/L (≈ 4.81 to 19.3 µM) | 2 to 8 mg/L (≈ 4.81 to 19.3 µM) | 16 to 64 mg/L (≈ 38.5 to 154 µM) | > 64 mg/L | 16 to 64 µg/mL (≈ 38.5 to 154 µM) | 2 to 8 mg/L (≈ 4.81 to 19.3 µM) | > 64 mg/L
CN(Cc1cnc2nc(N)nc(N)c2n1)c1ccc(C(=O)Nc2ccc(O)cc2)cc1 [Compound 1] | – | – | – | – | < 0.1 µM | 0.5 to 0.999 µM | > 64 mg/L | 16 to 64 mg/L (≈ 38.4 to 154 µM) | 2 to 8 mg/L (≈ 4.8 to 19.2 µM) | 2 to 8 mg/L (≈ 4.8 to 19.2 µM) | > 64 mg/L | 16 to 64 µg/mL (≈ 38.4 to 154 µM) | < 2 mg/L | > 64 mg/L
Nc1nc(N)c2nc(CNc3ccccc3)cnc2n1 [Compound 6] | – | – | – | – | 1 to 5 µM | > 5 µM | > 64 mg/L | 2 to 8 mg/L (≈ 7.48 to 29.9 µM) | 2 to 8 mg/L (≈ 7.48 to 29.9 µM) | 2 to 8 mg/L (≈ 7.48 to 29.9 µM) | > 64 mg/L | 2 to 8 µg/mL (≈ 7.48 to 29.9 µM) | 2 to 8 mg/L (≈ 7.48 to 29.9 µM) | > 64 mg/L
Nc1nc(N)c2nc(CNc3ccc4nc(S)sc4c3)cnc2n1 [Compound 10] | – | – | – | – | 0.1 to 0.499 µM | > 5 µM | > 64 mg/L | < 2 mg/L | 16 to 64 mg/L (≈ 44.9 to 180 µM) | < 2 mg/L | > 64 mg/L | 2 to 8 µg/mL (≈ 5.61 to 22.4 µM) | 2 to 8 mg/L (≈ 5.61 to 22.4 µM) | 16 to 64 mg/L (≈ 44.9 to 180 µM)
CN(Cc1cnc2nc(N)nc(N)c2n1)c1ccccc1 [Compound 9] | – | – | – | – | 0.1 to 0.499 µM | > 5 µM | > 64 mg/L | < 2 mg/L | < 2 mg/L | 2 to 8 mg/L (≈ 7.11 to 28.4 µM) | > 64 mg/L | 2 to 8 µg/mL (≈ 7.11 to 28.4 µM) | < 2 mg/L | > 64 mg/L
Nc1nc(N)c2nc(CNc3cccc(OCc4ccccc4)c3)cnc2n1 [Compound 16] | – | – | – | – | < 0.1 µM | > 5 µM | > 64 mg/L | < 2 mg/L | > 64 mg/L | < 2 mg/L | > 64 mg/L | < 2 µg/mL | < 2 mg/L | > 64 mg/L
Nc1nc(N)c2nc(CNc3ccc(F)c([N+](=O)[O-])c3)cnc2n1 [Compound 15] | – | – | – | – | 0.1 to 0.499 µM | > 5 µM | > 64 mg/L | < 2 mg/L | < 2 mg/L | < 2 mg/L | > 64 mg/L | < 2 µg/mL | < 2 mg/L | 2 to 8 mg/L (≈ 6.06 to 24.2 µM)
CN(Cc1cnc2nc(N)nc(N)c2n1)c1cccc([N+](=O)[O-])c1 [Compound 14] | – | – | – | – | < 0.1 µM | > 5 µM | > 64 mg/L | < 2 mg/L | < 2 mg/L | < 2 mg/L | > 64 mg/L | < 2 µg/mL | < 2 mg/L | > 64 mg/L
CN(Cc1cnc2nc(N)nc(N)c2n1)c1ccc(C(=O)NCc2ccncc2)cc1 [Compound 5] | – | – | – | – | < 0.1 µM | 0.5 to 0.999 µM | > 64 mg/L | 2 to 8 mg/L (≈ 4.81 to 19.3 µM) | 2 to 8 mg/L (≈ 4.81 to 19.3 µM) | 2 to 8 mg/L (≈ 4.81 to 19.3 µM) | > 64 mg/L | 16 to 64 µg/mL (≈ 38.5 to 154 µM) | 2 to 8 mg/L (≈ 4.81 to 19.3 µM) | > 64 mg/L
Nc1nc(N)c2nc(CNc3ccc4c(c3)OCO4)cnc2n1 [Compound 8] | – | – | – | – | 1 to 5 µM | > 5 µM | > 64 mg/L | 2 to 8 mg/L (≈ 6.42 to 25.7 µM) | 2 to 8 mg/L (≈ 6.42 to 25.7 µM) | 2 to 8 mg/L (≈ 6.42 to 25.7 µM) | > 64 mg/L | 2 to 8 µg/mL (≈ 6.42 to 25.7 µM) | 2 to 8 mg/L (≈ 6.42 to 25.7 µM) | > 64 mg/L

— patent publication US20030176436A1, “Novel heterocyclic compounds as selective bacterial DHFR inhibitors and their uses thereof” (priority 2001, published 2003)
